One assay deals with Bacteria. The experiment in a line: Activity of compound tested against Gram negative bacteria at concentration of 100 ug/ml; Inactive. Format: functional, organism-based.
The nature of assay [1]: Activity of compound tested against Gram positive bacteria at concentration of 100 ug/ml; Inactive. The assay is classed as functional.

Activity calls are given as the source filed them. No cut-off for these calls is given here.

As for `O=C(O)C1=C([C@H]2CCCO2)S[C@@H]2[C@H](C(=O)O)CC(=O)N12`, the outcome (in the assay with Bacteria; in assay [1]) was inactive.
Take `O=C(O)C1=C([C@H]2CCCO2)S[C@@H]2[C@@H](C(=O)NCc3ccccc3)CC(=O)N12`: the outcome (in the assay with Bacteria; in assay [1]) was inactive.
With `CC1(C)S[C@@H]2[C@@H](C(=O)NCc3ccccc3)CC(=O)N2[C@H]1C(=O)O`, the result (in the assay on Bacteria; in assay [1]) was inactive.
As to `O=C(O)C1=C(C2CCCO2)S[C@@H]2[C@@H](C(=O)O)CC(=O)N12` (stereo partly drawn), the outcome (with Bacteria; in assay [1]) was inactive.
